# Source: patent US9801855B2, “Nanocrystalline solid dispersion compositions and process of preparation thereof” (NATIONAL INSTITUTE OF PHARMACEUTICAL EDUCATION AND RESEARCH …, priority 2012, dated 2017)
# Columns and labels:
# [1] = Dissolution of curcumin powder and dispersion in fasted state simulated gastric fluid; type: physicochemical; conditions: fasted state simulated gastric fluid pH 1.6, 37° C., 100 rpm, 25 mg equivalent
# Procedure: • i. 2 gm of curcumin and 2 gm of stearic acid were dissolved in 200 ml of acetone. • ii. The solution was spray dried using following parameters (Table 1). • iii. DSC and MDSC indicated the crystalline nature of curcumin in the dispersion. The crystallite size measured from powder X-ray diffraction peak broadening by Scherrer equation was 398.6 nm. • iv. Fasted state simulated gastric fluid contained sodium taurocholate (80 μM), lecithin (20 μM), pepsin (0.1 mg/ml), sodium chloride (34.2 mM), sodium lauryl sulphate (0.05% w/v) and hydrochloric acid (q.s. pH 1.6). Samples equivalent to 25 mg of CRM were added into 900 ml dissolution medium and incubated at 37±0.5° C. at 100 rpm.
# [2] = Dissolution of powder and dispersion in 900 ml of 100 mM pH 6.8 phosphate buffer at 100 rpm; type: physicochemical; conditions: 60 mg equivalent
# Procedure: • i. 2 gm of hesperetin was dissolved in 150 ml of methanol • ii. 2 gm of mannitol was dissolved in 50 ml of distilled water. • iii. Aqueous mannitol solution was added to methanolic solution of hesperetin. The solution was spray dried using following parameters (Table 10). • iv. DSC and MDSC indicated the crystalline nature of hesperetin in the dispersion. The crystallite size measured from powder X-ray diffraction peak broadening (FIG. 14) by Scherrer equation was 141.06 nm. • v. The dissolution profiles of hesperetin powder and dispersion in 900 ml of 100 mM pH 6.8 phosphate buffer at 100 rpm are presented in Table 11. 60 mg equivalent of hesperetin as powder and dispersion were taken for dissolution studies. • i. 2 gm of Naringenin was dissolved in 150 ml of methanol • ii. 2 gm of mannitol was dissolved in 50 ml of distilled water. • iii. Aqueous mannitol solution was added to methanolic solution of naringenin. The solution was spray dried using following parameters (Table 12). • iv. DSC and MDSC indicated the crystalline nature of naringenin in the dispersion. The crystallite size measured from powder X-ray diffraction peak broadening (FIG. 15) by Scherrer equation was 210.63 nm. • v. The dissolution profiles of naringenin powder and dispersion in 900 ml of 100 mM pH 6.8 phosphate buffer at 100 rpm are presented in Table 13. 60 mg equivalent of naringenin as powder and dispersion were taken for dissolution studies.
# [3] = in vivo; conditions: female, SD, rat, po, 250 mg/kg
% Release ([2]; 0 min),% Release ([2]; 3 min),% Release ([2]; 5 min),% Release ([2]; 10 min),% Release ([2]; 15 min),% Release ([2]; 30 min),% Release ([2]; 60 min),% Release ([2]; 120 min),Structure (SMILES),further results
–,–,–,–,–,–,–,–,"COc1cc(/C=C/C(=O)CC(=O)/C=C/c2ccc(O)c(OC)c2)ccc1O [Curcumin powder, curcumin]",% Release ([1]; 5 min): 10.8%; % Release ([1]; 10 min): 15.0%; % Release ([1]; 15 min): 15.4%; % Release ([1]; 20 min): 15.1%; % Release ([1]; 30 min): 15.1%; % Release ([1]; 40 min): 15.2%; % Release ([1]; 60 min): 15.0%; % Release ([1]; 80 min): 15.2%; % Release ([1]; 100 min): 15.6%; % Release ([1]; 120 min): 15.3%
0.00%,1.25%,3.06%,2.15%,1.06%,1.48%,3.74%,7.47%,"COc1ccc([C@@H]2CC(=O)c3c(O)cc(O)cc3O2)cc1O [Hesperetin powder, hesperetin]",–
1.60%,5.84%,9.54%,11.52%,17.32%,23.34%,26.25%,25.14%,"O=C1C[C@@H](c2ccc(O)cc2)Oc2cc(O)cc(O)c21 [Naringenin powder, naringenin]",–
–,–,–,–,–,–,–,–,"COc1cc(/C=C/C(=O)CC(=O)/C=C/c2ccc(O)c(OC)c2)ccc1O [Control, curcumin]",AUC(0-inf) [3]: 0.0762 µg·h/mL; Cmax [3]: 0.0581 µg/mL; Tmax [3]: 0.6 ± 0.1 h; half-life [3]: 1.4 ± 0.3 h
